How the values were obtained:
[1] = Comparative bioavailability study, monomethyl fumarate plasma pharmacokinetics, single dose, fasting; format: in vivo, human; conditions: Treatment A over Treatment B normalized to 180 mg DMF
Method: This was a single center, pilot, comparative bioavailability, open-label, randomized, single-dose, 2-period, 2-sequence, crossover study under fasting conditions. A total of 12 healthy adult male or female volunteers were included in this pilot study. For each period, subjects will be confined from at least 10 hours before dosing until 12 hours post-dose. There were a washout of 7 days or more between doses. The washout period could be increased for logistical considerations. Participation of each subject in this study lasted approximately 9 days.
The delayed-release capsule were placed on the subject's tongue. Subjects were instructed to suck the delayed-release capsule until the acetylsalicylic acid coating was dissolved or up to a maximum of 1 minute after the delayed-release capsule had been placed on the subject's tongue. The delayed-release capsule should not be chewed, bitten, or swallowed during that 1 minute period or until the coating is dissolved; only the saliva could be swallowed. The subject was instructed to give a hand sign once the acetylsalicylic acid coating was dissolved (the capsule should feel and taste different). Thereafter, or up to a maximum of 1 minute after the delayed-release capsule was placed on the subject's tongue, 240 mL of water was given to subjects to swallow the capsule. Time of dosing was set to the time the capsule was placed on the tongue. […]

[2] = pretreatment with 325 mg aspirin for 4 days before DMF; cited from earlier work

Cmax Change % (A over B) [1]: did not have significant impact
SMILES: CC(=O)Oc1ccccc1C(=O)O [aspirin, acetylsalicylic acid]
flushing incidence and intensity [2]: reduced
gastrointestinal events [2]: did not affect
pharmacokinetic profile of DMF [2]: did not affect

Source: patent publication US11013751B2, “Compositions and methods for treating multiple sclerosis” (Vitalis LLC, priority 2017, dated 2021)
